The results in this text go back to ChEMBL document CHEMBL4043153, “Lead selection of antiparasitic compounds from a focused library of benzenesulfonyl derivatives of heterocycles” (Bioorg Med Chem Lett, 2017).

Common to all, as to format: functional
Experiment [1] has as its system Plasmodium falciparum. Briefly: Antiparasitic activity against intraerythrocytic form of chloroquine/pyrimethamine-resistant Plasmodium falciparum K1 infected in human RBC assessed as growth inhibition at 0.8 ug/ml preincubated for 48 hrs followed by [3H]-hypoxanthine addition measured after 24 hrs by liquid scintillation counting analysis relative to control. The settings on record: read-out: GI.

In experiment [2] the test system is Trypanosoma brucei rhodesiense. Briefly: Antiparasitic activity against Trypanosoma brucei rhodesiense STIB 900 trypomastigote bloodstream form assessed as growth inhibition at 4.8 ug/ml after 72 hrs by resazurin dye-based fluorometric analysis relative to control. The settings on record: STIB 900, 72 h, read-out: GI.
For experiment [3], the system named is Trypanosoma cruzi. Briefly: Antiparasitic activity against Trypanosoma cruzi Tulahuen C4 intracellular amastigotes infected in rat L6 cells assessed as growth inhibition at 0.8 ug/ml after 96 hrs by CPRG/Nonidet reagent based photometric analysis relative to control. The note with it: Tulahuen C4, L6, 96 h, read-out: GI.
The subject of experiment [4] is Leishmania donovani. Briefly: Antiparasitic activity against Leishmania donovani MHOM-ET-67/L82 axenic amastigotes assessed as growth inhibition at 4.8 ug/ml after 72 hrs by resazurin dye-based fluorometric analysis relative to control. The note with it: MHOM-ET-67/L82, 72 h, read-out: GI. (In general: Alamar Blue is a resazurin reagent that responds to reducing activity.)

The test system of experiment [5] is Trypanosoma cruzi. Briefly: Antiparasitic activity against Trypanosoma cruzi Tulahuen C4 intracellular amastigotes infected in rat L6 cells assessed as growth inhibition at 4.8 ug/ml after 96 hrs by CPRG/Nonidet reagent based photometric analysis relative to control. The settings on record: Tulahuen C4, L6, 96 h, read-out: GI.
In experiment [6] the test system is Trypanosoma brucei rhodesiense. Briefly: Antiparasitic activity against Trypanosoma brucei rhodesiense STIB 900 trypomastigote bloodstream form assessed as growth inhibition at 0.8 ug/ml after 72 hrs by resazurin dye-based fluorometric analysis relative to control. The note with it: STIB 900, 72 h, read-out: GI.
Experiment [7] deals with Leishmania donovani. Briefly: Antiparasitic activity against Leishmania donovani MHOM-ET-67/L82 axenic amastigotes assessed as growth inhibition at 0.8 ug/ml after 72 hrs by resazurin dye-based fluorometric analysis relative to control. The note with it: MHOM-ET-67/L82, 72 h, read-out: GI.
Experiment [8] has as its system Plasmodium falciparum. Briefly: Antiparasitic activity against intraerythrocytic form of chloroquine/pyrimethamine-resistant Plasmodium falciparum K1 infected in human RBC assessed as growth inhibition at 4.8 ug/ml preincubated for 48 hrs followed by [3H]-hypoxanthine addition measured after 24 hrs by liquid scintillation counting analysis relative to control. The note with it: read-out: GI.

In the case of `CC1Cc2ccccc2N1S(=O)(=O)c1cccc(C(F)(F)F)c1` (stereo unspecified), the inhibition of growth at 0.8 µg/mL with Plasmodium falciparum [1] turned out to be 15.1%; in the experiment with Trypanosoma cruzi [3], 0%; in experiment [6], 0%; in the experiment with Leishmania donovani [7], 13.5%. The inhibition of growth at 4.8 µg/mL in experiment [2] worked out at 0%; with Leishmania donovani [4], 77.6%; in the experiment on Trypanosoma cruzi [5] it was 5.7%; with Plasmodium falciparum [8], 77.1%.

Consider `O=[N+]([O-])c1ccccc1S(=O)(=O)N1CCCc2ccccc21`, for which the inhibition of growth at 0.8 µg/mL stood at 3.5% in the experiment on Plasmodium falciparum [1], 0% in the experiment with Trypanosoma cruzi [3], 6.2% in experiment [6] and 10.1% in the experiment with Leishmania donovani [7]. The inhibition of growth at 4.8 µg/mL in experiment [2] is 17.1%; in the experiment with Leishmania donovani [4], 50.1%; in the experiment on Trypanosoma cruzi [5], 26.9%; with Plasmodium falciparum [8], 38%.

For the compound `CC(=O)c1ccc(S(=O)(=O)N2c3ccccc3CCC2C)cc1` (stereo unspecified), the inhibition of growth at 0.8 µg/mL with Plasmodium falciparum [1] came out at 4%; in the experiment on Trypanosoma cruzi [3], 0%; in experiment [6], 0%; in the experiment on Leishmania donovani [7], 6%. For the same compound, the inhibition of growth at 4.8 µg/mL in experiment [2] was found to be 1.5%; in the experiment with Leishmania donovani [4], 45.7%; in the experiment on Trypanosoma cruzi [5], 91.9%; in the experiment with Plasmodium falciparum [8], 29.8%.

For the compound `O=S(=O)(c1ccc(C(F)(F)F)cc1)N1CCc2ccccc21`, the inhibition of growth at 0.8 µg/mL with Plasmodium falciparum [1] was 0%; in the experiment with Trypanosoma cruzi [3] it was 3.4%; in experiment [6], 2.2%; with Leishmania donovani [7], 12.6%. In addition, the inhibition of growth at 4.8 µg/mL came out at 0% in experiment [2], 68.8% in the experiment with Leishmania donovani [4], 10.8% in the experiment on Trypanosoma cruzi [5] and 59.8% in the experiment on Plasmodium falciparum [8].

Consider `Nc1nc(N)nc(Nc2ccc([As]3SCC(CO)S3)cc2)n1` (stereo unspecified) [MELARSOPROL], for which the inhibition of growth at 4.8 µg/mL in experiment [2] was 98.3%. The inhibition of growth at 0.8 µg/mL in experiment [6] was determined as 44.4%.

On to `CC(C)(C)c1ccc(S(=O)(=O)n2nnc3ccccc32)cc1`, for which the inhibition of growth at 0.8 µg/mL in the experiment on Plasmodium falciparum [1] worked out at 0%; in the experiment on Trypanosoma cruzi [3] it was 8.5%; in experiment [6] it was 8.8%; with Leishmania donovani [7], 13.3%. Also, the inhibition of growth at 4.8 µg/mL was found to be 0% in experiment [2], 42.8% in the experiment with Leishmania donovani [4], 7.4% in the experiment on Trypanosoma cruzi [5] and 0% with Plasmodium falciparum [8].

Regarding `O=S(=O)(c1cccc(C(F)(F)F)c1)N1CCCc2ccccc21`, the inhibition of growth at 0.8 µg/mL with Plasmodium falciparum [1] is 6.6%; with Trypanosoma cruzi [3], 10.4%; in experiment [6], 2.4%; in the experiment on Leishmania donovani [7], 23.7%. For the same compound, the inhibition of growth at 4.8 µg/mL in experiment [2] came out at 2.5%; with Leishmania donovani [4], 73.1%; in the experiment with Trypanosoma cruzi [5] it was 62.6%; in the experiment with Plasmodium falciparum [8], 68%.

For `O=S(=O)(c1ccc(C(F)(F)F)cc1)n1nnc2ccccc21`, the inhibition of growth at 0.8 µg/mL was found to be 0% in the experiment with Plasmodium falciparum [1], 5.5% with Trypanosoma cruzi [3], 3.4% in experiment [6] and 21.8% in the experiment with Leishmania donovani [7]. For the same compound, the inhibition of growth at 4.8 µg/mL was 0.4% in experiment [2], 44.8% in the experiment with Leishmania donovani [4], 3% in the experiment with Trypanosoma cruzi [5] and 1% with Plasmodium falciparum [8].

Turning to `CC1Cc2ccccc2N1S(=O)(=O)c1ccc(C(F)(F)F)cc1` (stereo unspecified), the inhibition of growth at 0.8 µg/mL was 12.7% in the experiment with Plasmodium falciparum [1], 0% in the experiment on Trypanosoma cruzi [3], 0% in experiment [6] and 17.9% with Leishmania donovani [7]. Also, the inhibition of growth at 4.8 µg/mL turned out to be 1.2% in experiment [2], 86.2% in the experiment with Leishmania donovani [4], 54.6% in the experiment with Trypanosoma cruzi [5] and 91.4% with Plasmodium falciparum [8].

Take `O=S(=O)(c1ccc(C(F)(F)F)cc1)n1ccc2ccccc21`: the inhibition of growth at 0.8 µg/mL in the experiment on Plasmodium falciparum [1] was found to be 4.3%; in the experiment with Trypanosoma cruzi [3], 0%; in experiment [6], 1.4%; in the experiment with Leishmania donovani [7], 15.9%. For the same compound, the inhibition of growth at 4.8 µg/mL was determined as 0% in experiment [2], 52.8% with Leishmania donovani [4], 0% in the experiment on Trypanosoma cruzi [5] and 53.2% with Plasmodium falciparum [8].

Regarding `CC1Cc2ccccc2N1S(=O)(=O)c1ccc(F)cc1` (stereo unspecified), the inhibition of growth at 0.8 µg/mL in the experiment on Plasmodium falciparum [1] is 12.6%; with Trypanosoma cruzi [3], 0%; in experiment [6], 2.3%; with Leishmania donovani [7], 4%. In addition, the inhibition of growth at 4.8 µg/mL in experiment [2] came out at 0%; in the experiment on Leishmania donovani [4], 47%; in the experiment with Trypanosoma cruzi [5] it was 4.8%; with Plasmodium falciparum [8] it was 65%.

In the case of `CC(C)(C)c1ccc(S(=O)(=O)N2CCc3ccccc3C2)cc1`, the inhibition of growth at 0.8 µg/mL with Plasmodium falciparum [1] was 11.6%; in the experiment with Trypanosoma cruzi [3] it was 0%; in experiment [6], 10.8%; in the experiment with Leishmania donovani [7], 31.6%. For the same compound, the inhibition of growth at 4.8 µg/mL is 8.7% in experiment [2], 100% in the experiment with Leishmania donovani [4], 26.7% in the experiment on Trypanosoma cruzi [5] and 86% in the experiment on Plasmodium falciparum [8].

For the compound `Cc1ccc(S(=O)(=O)N2c3ccccc3CC2C)cc1` (stereo unspecified), the inhibition of growth at 0.8 µg/mL was 7.7% with Plasmodium falciparum [1], 0% in the experiment with Trypanosoma cruzi [3], 3.5% in experiment [6] and 9.4% with Leishmania donovani [7]. For the same compound, the inhibition of growth at 4.8 µg/mL in experiment [2] was 0%; in the experiment with Leishmania donovani [4] it was 5.3%; in the experiment on Trypanosoma cruzi [5] it was 93.4%; in the experiment on Plasmodium falciparum [8], 53.1%.

Consider `CC(C)(C)c1ccc(S(=O)(=O)N2CCCc3ccccc32)cc1`, for which the inhibition of growth at 0.8 µg/mL in the experiment on Plasmodium falciparum [1] stood at 23.5%; with Trypanosoma cruzi [3] it was 0%; in experiment [6] it was 6.7%; in the experiment on Leishmania donovani [7], 49.8%. The inhibition of growth at 4.8 µg/mL in experiment [2] turned out to be 5.5%; in the experiment on Leishmania donovani [4] it was 99.1%; in the experiment with Trypanosoma cruzi [5], 55.6%; in the experiment with Plasmodium falciparum [8] it was 91.6%.

As for `O=[N+]([O-])c1ccccc1S(=O)(=O)n1nnc2ccccc21`, the inhibition of growth at 0.8 µg/mL is 0% with Plasmodium falciparum [1], 7.3% in the experiment on Trypanosoma cruzi [3], 0% in experiment [6] and 32.7% with Leishmania donovani [7]. In addition, the inhibition of growth at 4.8 µg/mL in experiment [2] stood at 1.3%; in the experiment on Leishmania donovani [4], 89.4%; in the experiment with Trypanosoma cruzi [5], 7.1%; in the experiment with Plasmodium falciparum [8], 0%.

Turning to `CC(=O)Nc1ccc(S(=O)(=O)N2c3ccccc3CC2C)cc1` (stereo unspecified), the inhibition of growth at 0.8 µg/mL in the experiment with Plasmodium falciparum [1] amounted to 4.2%; in the experiment with Trypanosoma cruzi [3], 0%; in experiment [6], 0%; with Leishmania donovani [7] it was 6.4%. Besides, the inhibition of growth at 4.8 µg/mL in experiment [2] was 1.7%; with Leishmania donovani [4], 14.7%; in the experiment on Trypanosoma cruzi [5], 46.7%; in the experiment on Plasmodium falciparum [8], 15.6%.

For `CC(C)(C)c1ccc(S(=O)(=O)n2ccc3ccccc32)cc1`, the inhibition of growth at 0.8 µg/mL is 13.9% in the experiment with Plasmodium falciparum [1], 0% in the experiment with Trypanosoma cruzi [3], 0% in experiment [6] and 27.3% in the experiment on Leishmania donovani [7]. In addition, the inhibition of growth at 4.8 µg/mL was determined as 0% in experiment [2], 92.2% with Leishmania donovani [4], 0% with Trypanosoma cruzi [5] and 92.3% with Plasmodium falciparum [8].

As for `O=S(=O)(c1ccc(C(F)(F)F)cc1)N1CCCc2ccccc21`, the inhibition of growth at 0.8 µg/mL was determined as 7.2% with Plasmodium falciparum [1], 0% in the experiment with Trypanosoma cruzi [3], 7.2% in experiment [6] and 20.1% in the experiment on Leishmania donovani [7]. Besides, the inhibition of growth at 4.8 µg/mL in experiment [2] was 18.1%; in the experiment on Leishmania donovani [4], 85%; with Trypanosoma cruzi [5], 22.6%; with Plasmodium falciparum [8], 75.3%.

As to `O=S(=O)(c1ccc(C(F)(F)F)cc1)N1CCc2ccccc2C1`, the inhibition of growth at 0.8 µg/mL in the experiment with Plasmodium falciparum [1] amounted to 0.6%; in the experiment with Trypanosoma cruzi [3], 0%; in experiment [6], 0.7%; in the experiment with Leishmania donovani [7], 40.8%. The inhibition of growth at 4.8 µg/mL turned out to be 5.8% in experiment [2], 58.3% in the experiment with Leishmania donovani [4], 27.3% with Trypanosoma cruzi [5] and 22.7% with Plasmodium falciparum [8].

On to `O=C(Cn1ccnc1[N+](=O)[O-])NCc1ccccc1` [BENZNIDAZOLE], for which the inhibition of growth at 0.8 µg/mL in the experiment on Trypanosoma cruzi [3] came out at 63.3%. The inhibition of growth at 4.8 µg/mL with Trypanosoma cruzi [5] is 98.5%.

Turning to `O=[N+]([O-])c1ccccc1S(=O)(=O)n1ccc2ccccc21`, the inhibition of growth at 0.8 µg/mL in the experiment on Trypanosoma cruzi [3] was less than 40%.

`C[C@@H]1CC[C@H]2[C@@H](C)C(=O)O[C@@H]3O[C@@]4(C)CC[C@@H]1[C@]32OO4` [ARTEMISININ]: the inhibition of growth at 0.8 µg/mL in the experiment with Plasmodium falciparum [1] was determined as 80%. Besides, in the experiment on Plasmodium falciparum [8], the inhibition of growth at 4.8 µg/mL was 100%.
